{"source": "patent US10071054B2", "about": "“Econazole composition and methods of treatment therewith” (Exeltis USA Dermatology, Inc., priority 2010, dated 2018)", "origin": "cited, not measured here", "key": {"[1]": {"details": "Liao et al., Yao Xue Xue Bao 28 (1):22-7 (1993)"}, "dermatophytes and yeasts": {"test_system": "dermatophytes and yeasts", "details": "most strains of Epidermophyton floccosum, Microsporum audouinii, M. canis, M. gypseum, Trichophyton mentagrophytes, T. rubrum, T. tonsurans, Candida albicans, Malassezia furfur"}}}
{"smiles": "Clc1ccc(CO[C@@H](Cn2ccnc2)c2ccc(Cl)cc2Cl)cc1", "note": "[(R)-(−)-econazole]", "values": [{"measurement": "antifungal activity of stereoisomer", "setting": "[1]", "result": "greater antifungal activity"}]}
{"smiles": "Clc1ccc(COC(Cn2ccnc2)c2ccc(Cl)cc2Cl)cc1", "note": "(centres unmarked) [Econazole nitrate]", "values": [{"measurement": "activity against dermatophytes and yeasts", "setting": "dermatophytes and yeasts", "result": "shown activity"}]}
